Like-named read-outs stand apart in the source and are kept apart here.
Key:
[1] = rat, in vivo; for % Enhancement in bioavailability, BE from Zingiber officinale: 35 mg/kg; for % Enhancement in bioavailability, Carum carvi (Cc) Extr.: 30 mg/kg
Method: (§1) Bioenhancers of Zingiber officinale, mean 50% alcoholic extract of fresh ginger. The doses remain unchanged whether the bioenhancers are used alone or in combination.
(§2) The amount of bioenhancers used are given below: • i. from Carum carvi: extract 30 mg/kg body weight (rats); Fraction No. 1: 15 mg/kg body weight (rats) • ii. piperine 8 mg/kg body weight (rats) • iii. Zingiber officinale: 35 mg/kg body weight (rats) • The drug used was rifampicin (40 mg/kg). The drug alone or in combination with the bioenhancers was administered to rats as given below: • Group 1: control • Group 2: Rifampicin alone • Group 3: bioenhancer alone • Group 4: Rifampicin with Carum carvi bioenhancer
(§3) Blood from the control/treated animals at predetermined intervals (0-24 hours) (total 14 timings). Rifampicin was extracted from the blood (plasma) using dichloromethane. […] The mobile phase was phosphate buffer:acetonitrile in a ratio of 40:60, and a flow rate of 1.0 ml/min.

[2] = drug with piperine; background statement; cited from earlier work
[3] = Enhancement of bioavailability of drugs given to rats with bioenhancers (plasma drug level by HPLC); details: for % Enhancement in bioavailability, BE from Carum carvi: drug with Carum carvi bioenhancer (aqueous or 50% alcoholic extract 30 mg/kg or Fraction No. 1 15 mg/kg), drug dose mg/kg
Method: as §1, §2, §3

| Compound | % Enhancement in bioavailability, BE from Carum carvi [1] | % Enhancement in bioavailability, Carum carvi + Piperine [1] | % Enhancement in bioavailability, Carum carvi + Zingiber officinale [1] | % Enhancement in bioavailability, BE from Zingiber officinale [1] | % Enhancement in bioavailability, Carum carvi + Zingiber officinale, Extr. (Cc) [1] | % Enhancement in bioavailability, Carum carvi + Zingiber officinale, Frac 1. (Cc) [1] | % Enhancement in bioavailability, Carum carvi + piperine, Extr. (Cc) [1] | % Enhancement in bioavailability, Carum carvi + piperine, Frac 1. (Cc) [1] | % Enhancement in bioavailability, Carum carvi (Cc) Extr. [1] | other results |
| --- | --- | --- | --- | --- | --- | --- | --- | --- | --- | --- |
| NNC(=O)c1ccncc1 [Isoniazid] | Nil | nil | nil | Nil |  |  |  |  |  | bioenhancing effect of piperine on the drug [2]: nil or marginal |
| COc1cc(/C=C/C(=O)CC(=O)/C=C/c2ccc(O)c(OC)c2)ccc1O [Curcumin] |  |  |  | 49% | 43% | 52% | 42% | 51% | 40% |  |
| CCCNC(=O)NS(=O)(=O)c1ccc(Cl)cc1 [chlorpropamide] |  |  |  |  |  |  |  |  |  | bioenhancing effect of piperine on the drug [2]: does not enhance |
| Nc1nc2ncc(CNc3ccc(C(=O)N[C@@H](CCC(=O)O)C(=O)O)cc3)nc2c(=O)[nH]1 [Folio Acid] |  |  |  | nil | nil | nil | nil | nil | Nil |  |
| Silymarin |  |  |  | 33% | 38% | 41% | 36% | 45% | 31% |  |
| N[C@@H]1CON=C1O [Cycloserine] | 70% | 80% | 75% | 71% |  |  |  |  |  |  |
| CCOC(=O)C1=C(COCCN)NC(C)=C(C(=O)OC)C1c1ccccc1Cl (stereo not shown) [Amlodipine] |  | 50% | 65% | 68% |  |  |  |  |  | % Enhancement in bioavailability, BE from Carum carvi [3]: Nil |
| Vitamin A |  |  |  | Nil | 20% | 27% | 13% | 16% | 17% |  |
| O=C1O[C@H]([C@@H](O)CO)C(O)=C1O [Vit C] |  |  |  | Nil | Nil | Nil | Nil | Nil | Nil |  |
| O=C(O)Cc1ccccc1Nc1c(Cl)cccc1Cl [Diclofenac] | Nil | 100% | 95% | 90% |  |  |  |  |  |  |
| CC[C@H](C)[C@H](N)C(=O)O [Isoleucine] |  |  |  | 15% | 42% | 50% | 37% | 44% | 28% |  |
| CO[C@H]1/C=C/O[C@@]2(C)Oc3c(C)c(O)c4c(O)c(c(/C=N/N5CCN(C)CC5)c(O)c4c3C2=O)NC(=O)/C(C)=C\C=C\[C@H](C)[C@H](O)[C@@H](C)[C@@H](O)[C@@H](C)[C@H](OC(C)=O)[C@@H]1C [Rifampicin] |  |  |  |  |  |  |  |  |  | bioenhancing effect of piperine on the drug [2]: highly significant; % Enhancement in bioavailability, BE from Carum carvi [3]: 110%; % Enhancement in bioavailability, Carum carvi + Zingiber officinale ([3]; drug with Carum carvi bioenhancer and Zingiber officinale 35 mg/kg, drug dose as in row): 140%; % Enhancement in bioavailability, Carum carvi + Piperine ([3]; drug with Carum carvi bioenhancer and piperine 8 mg/kg, drug dose as in row): 170%; % Enhancement in bioavailability, BE from Zingiber officinale ([3]; drug with Zingiber officinale 50% alcoholic extract of fresh ginger 35 mg/kg, drug dose as in row): 65%; % Enhancement in bioavailability, Piperine as BE ([3]; drug with piperine 8 mg/kg, drug dose as in row): 45% |
| NCC[C@H](O)C(=O)N[C@@H]1C[C@H](N)[C@@H](O[C@H]2O[C@H](CN)[C@@H](O)[C@H](O)[C@H]2O)[C@H](O)[C@H]1O[C@H]1O[C@H](CO)[C@@H](O)[C@H](N)[C@H]1O [Amikacin] | 85% | 100% | 92% | Nil |  |  |  |  |  |  |
| CNC(=C[N+](=O)[O-])NCCSCc1ccc(CN(C)C)o1 [Ranitidine] | 67% | 70% | 150% | 147% |  |  |  |  |  |  |
| C=CC1=C(C(=O)O)N2C(=O)[C@@H](NC(=O)/C(=N\OCC(=O)O)c3csc(N)n3)[C@H]2SC1 [Cefixime] | 80% | 79% | 82% | Nil |  |  |  |  |  |  |
| Nc1nc2c(ncn2COCCO)c(=O)[nH]1 [Acyclovir] | 78% | 100% | 90% | 82% |  |  |  |  |  |  |
| CC[C@H]1OC(=O)[C@H](C)[C@@H](O[C@H]2C[C@@](C)(OC)[C@@H](O)[C@H](C)O2)[C@H](C)[C@@H](O[C@@H]2O[C@H](C)C[C@H](N(C)C)[C@H]2O)[C@](C)(O)C[C@@H](C)/C(=N\OCOCCOC)[C@H](C)[C@@H](O)[C@]1(C)O [Roxythromycin] | 65% | 95% | 98% | 72% |  |  |  |  |  |  |
| CN1C(C(=O)Nc2ccccn2)=C(O)c2ccccc2S1(=O)=O [Piroxicam] | Nil | 98% | 76% | 86% |  |  |  |  |  |  |
| [Se] [Selenium] |  |  |  | Nil | nil | nil | Nil | nil | Nil |  |
| CC[C@H]1OC(=O)[C@H](C)[C@@H](O[C@H]2C[C@@](C)(OC)[C@@H](O)[C@H](C)O2)[C@H](C)[C@@H](O[C@@H]2O[C@H](C)C[C@H](N(C)C)[C@H]2O)[C@](C)(O)C[C@@H](C)C(=O)[C@H](C)[C@@H](O)[C@]1(C)O [Erythromycin] | 70% | 100% | 105% | 68% |  |  |  |  |  |  |
| NC(=O)c1cnccn1 [Pyrazinamide] | 45% | 50% | 55% | Nil |  |  |  |  |  | bioenhancing effect of piperine on the drug [2]: nil or marginal |
| COc1ccc2[nH]c([S+]([O-])Cc3ncc(C)c(OC)c3C)nc2c1 (stereo not shown) [Omeprazole] | 76% | 70% | 75% | nil |  |  |  |  |  |  |

From patent publication US20080292736A1, “Bioavailability enhancing activity of carum carvi extracts and fractions thereof” (COUNCIL OF SCIENTIFIC AND INDUSTRIAL RESEARCH, priority 2001, published 2008)
